For one data set, the target named is Wild Type RT (Human immunodeficiency virus type 1 group M subtype B, UniProt P04585). The data set is described as follows: HIV-1 Reverse Transcriptase Inhibition Assay. It is filed as biochemical. The following applies: Wild Type RT IC50. The procedure: The following materials were removed from the freezer and were stored on wet ice (dGTP, ^32P, purified enzyme extract, rCdG, dGTP, DNA). Test compounds were evaluated at a high test of 100 μM diluted in dH2O and if the stock solution was turbid, 1:1000 Triton-X was added to the stock solution. Thirty microliters (30 μL) of each dilution was then transferred in duplicate to the appropriate well of a 96-well plate. The positive and negative control wells each received 30 μL of dH2O instead of the compound. A 2× buffer was prepared in the following manner: 125 μL 2M Tris pH 8.0, 250 μL 3M KCl, 80 μL 1 M MgC12, 10 μL 2 M DTT, 40 μL 25 U/mL rCdG, 100 μL 1 mM dGTP, 10 μL 800 Ci/mMol alpha ^32P:dG TP, and 4.4 mL dH2O. Fifty microliters (50 μL) of 2× buffer was added to every well of the plate. BSA was diluted 1:100 and Triton-X 1:1000 in dH2O and the enzyme was added to the mixture at a 1:400 dilution. Twenty microliters (20 μL) of the enzyme solution was added to all of the wells of the plate except the negative control wells. Distilled water was used instead of enzyme in these wells. The plate was incubated at 37° C. for 30 minutes. Following incubation, 10 μL of 10 mg/mL DNA (MB-grade fish sperm) was added to each well, followed by 150 μL of cold 10% TCA in each well. The plate was incubated at room temperature for approximately 15 minutes in order to allow for precipitation of the samples. Following the incubation the contents were transferred to the appropriate filter plate. The plate was placed on the vacuum manifold and pushed firmly to induce suction. Wells were rinsed with 200 μL of cold TCA. Again, the plate was pushed down firmly and vacuum suction was applied. Once all of the liquid was aspirated from the filter plate, it was removed from the manifold and residual liquid was blotted from the bottom of the plastic base. The filtered wells were separated from the plastic base and the wells were blotted on clean, absorbent paper. The filtered wells were pushed into the cassette and a sheet of Millipore multiscreen tape was placed on the bottom of a Wallace Microbeta cassette covering all of the holes. Twenty microliters (20 μL) of Wallace Supermix Scintillant was added to each well and the top of the wells were covered with a sheet of the multiscreen tape. The plate was read on the Wallace MicroBeta counter to measure incorporated ^32P.

The subject of the next data set is HIV-1RF. The data set is described as follows: Anti-HIV-1 cytoprotection assay in CEM-SS cells. The format is cell-based. The protocol: Cell Preparation—CEM-SS cells were passaged in T-75 flasks prior to use in the antiviral assay. On the day preceding the assay, the cells were split 1:2 to assure they were in an exponential growth phase at the time of infection. Total cell and viability quantification was performed using a hemocytometer and Trypan Blue dye exclusion. […] The cells were resuspended at 5×10^4 cells per ml in tissue culture medium and added to the drug containing microtiter plates in a volume of 50 μL.
Virus Preparation—The virus used for the assay was the lymphocyte-tropic virus strain HIV-IRF. The virus was obtained from the NIH AIDS Research and Reference Reagent Program and stock virus pools were produced in CEM-SS cells. A pretitred aliquot of virus was removed from the freezer (−80° C.) and allowed to thaw slowly to room temperature in a biological safety cabinet.
(§1) Plate Format—Each plate contains cell control wells (cells only), virus control wells (cells plus virus), drug toxicity wells (cells plus drug only), drug colorimetric control wells (drug only) as well as experimental wells (drug plus cells plus virus). Samples were tested in triplicate with eleven half-log dilutions per compound.
(§2) Efficacy and Toxicity XTT—Following incubation at 37° C. in a 5% CO2 incubator, the test plates were stained with the tetrazolium dye XTT (2,3-bis(2-methoxy-4-nitro-5-sulfophenyl)-5-[(phenylamino)carbonyl]-2H-tetrazolium hydroxide). XTT-tetrazolium is metabolized by the mitochondrial enzymes of metabolically active cells to a soluble formazan product, allowing rapid quantitative analysis of the inhibition of HIV induced cell killing by anti-HIV test substances. XTT solution was prepared daily as a stock of 1 mg/mL in RPMI1640. Phenazine methosulfate (PMS) solution was prepared at 0.15 mg/mL in PBS and stored in the dark at −20° C. XTT/PMS stock was prepared immediately before use by adding 40 μL of PMS per ml of XTT solution. Fifty microliters of XTT/PMS was added to each well of the plate and the plate was re-incubated for 4 hours at 37° C. Plates were sealed with adhesive plate sealers and shaken gently or inverted several times to mix the soluble fosmazan product and the plate was read spectrophotometrically at 450/650 nm with a Molecular Devices Vmax plate reader.
Anti-HIV-1 Cytopathic Effects Inhibition Assay Evaluations: Eight compounds were evaluated against the RF strain of HIV-1 in CEM-SS cells using a 12 concentration dose response curve.
(§3) Data Analysis—Raw data was collected from the Softmax Pro 4.6 software and imported into a Excel XLFit4 spreadsheet for analysis by four parameter curve fit calculations. Both antiviral activity and toxicity are calculated.

Data set [1] can be described thus: Toxicity XTT in CEM-SS cells (cytoprotection assay). The format is cell-based. To be noted: human, CEM-SS cells, XTT; read-out: CEM-SS TC50. The procedure:
Cell Preparation—CEM-SS cells were passaged in T-75 flasks prior to use in the antiviral assay. On the day preceding the assay, the cells were split 1:2 to assure they were in an exponential growth phase at the time of infection. Total cell and viability quantification was performed using a hemocytometer and Trypan Blue dye exclusion. Cell viability was greater than 95% for the cells to be utilized in the assay. The cells were resuspended at 5×10^4 cells per ml in tissue culture medium and added to the drug containing microtiter plates in a volume of 50 μL.
as §1, §2, §3

The next data set in a line: in vitro. The following applies: human. It is filed as in vitro ADME. The procedure:
Each determination was performed in duplicate.
Vr is the volume of the receiver compartment in cm^3.
Vd is the volume of the donor compartment in cm^3.
A is the area of the cell monolayer (1.13 cm^2 for 12-well Transwell®).
CN is the nominal dosing concentration of the dosing solution in μM.
CA is the average of the nominal dosing concentration and the measured 120 minute donor concentration in μM.
Cr^final is the receiver concentration in μM at the end of the incubation period.
Cd^final is the concentration of the donor in μM at the end of the incubation period.

Data set [2] is described as follows: Caco-2 permeability characterization (plate certification). The following applies: human; for Papp A→B: Caco-2, (A-to-B) Papp; for Papp B→A: Caco-2, (B-to-A) Papp; for efflux ratio: Caco-2, Efflux Ratio. The procedure: The objective of this study was to determine the bidirectional Caco-2 permeability of test compounds. Caco-2 monolayers were grown to confluence on collagen-coated, microporous, polycarbonate membranes in 12-well Costar Transwell® plates. Details of the plates and their certification are shown below. The permeability assay buffer for the donor chambers was Hanks Balanced Salt Solution containing 10 mM HEPES and 15 mM glucose (HBSSg) at a pH of 7.4. The buffer in the receiver chambers also contained 1% bovine serum albumin (BSA). The dosing solution concentrations were 10 μM in the assay buffer. Cell monolayers were dosed on the apical side (A to-B) or basolateral side (B-to-A) and incubated at 37° C. with 5% CO2 in a humidified incubator. After 2 hours, aliquots were taken from the receiver and donor chambers. Each determination was performed in duplicate. The lucifer yellow flux was also measured for each monolayer to ensure no damage was inflicted to the cell monolayers during the flux period. All samples were assayed by LC/MS/MS using electrospray ionization.
On the technique in general: Caco-2 cells form a polarised layer with tight junctions and transporters.

Where two headings read alike, the source gives them in different places.

As for `COCCOCCOCCNc1ccc2[nH]c(C(=O)N3CCN(c4ncccc4NC(C)C)CC3)cc2c1` [5-mPEG3-NH-Delavirdine], at Wild Type RT, the IC50 (usually the concentration at which inhibition is half-maximal) was determined as 1 µM. For the same compound, the “Therapeutic Index” value in the data set with HIV-1RF (CEM-SS/HIV-1RF) is on record as 212.67. Also, in the data set on HIV-1RF (Human immunodeficiency virus 1, CEM-SS, CEM-SS cells, XTT, read-out: CEM-SS/HIV-1RF EC50), the EC50 stood at 0.16 µM. Besides, the CC50 in data set [1] is 34.9 µM. Besides, the Papp A→B (usually how fast a substance crosses the layer from the apical side) at 2 hours, 10 μM in “in vitro” (Caco-2, pH 7.4, Test 2, 10 μM, 2 hours, pH 7.4, read-out: Average Papp, A→B) came out at 33.3 ×10⁻⁶ cm/s. Further, in the data set “in vitro” (Caco-2, pH 7.4, Test 2, 10 μM, 2 hours, pH 7.4, read-out: Average Papp, B→A), the Papp B→A (commonly how fast a substance crosses the layer from the basolateral side) at 2 hours, 10 μM amounted to 41.8 ×10⁻⁶ cm/s. Further, the recovery at 2 h, 10 μM worked out at 94% in “in vitro” (Caco-2, pH 7.4, Test 2, 10 μM, 2 hours, read-out: Recovery (%) A→B) and 96% in “in vitro” (Caco-2, pH 7.4, Test 2, 10 μM, 2 hours, read-out: Recovery (%) B→A). Moreover, the efflux ratio at 2 hours, 10 μM in the data set “in vitro” (Caco-2, pH 7.4, Test 2, read-out: Efflux Ratio (B→A/A→B)) amounted to 1.3.

Take `C[C@H]1O[C@@H](O[C@H]2[C@@H](O)C[C@H](O[C@H]3[C@@H](O)C[C@H](O[C@H]4CC[C@@]5(C)[C@H](CC[C@@H]6[C@@H]5C[C@@H](O)[C@]5(C)[C@@H](C7=CC(=O)OC7)CC[C@]65O)C4)O[C@@H]3C)O[C@@H]2C)C[C@H](O)[C@@H]1O` [Digoxin]: in data set [2] (Test 1, Passage Number 65), the Papp A→B was found to be 0.47 ×10⁻⁶ cm/s, the Papp B→A was determined as 11 ×10⁻⁶ cm/s and the efflux ratio is 23. Also, in data set [2] (Test 2, Passage Number 59), the Papp A→B is 0.65 ×10⁻⁶ cm/s, the Papp B→A turned out to be 16.9 ×10⁻⁶ cm/s and the efflux ratio worked out at 26. Moreover, in data set [2] (Test 2, Passage Number 67), the Papp A→B was 0.75 ×10⁻⁶ cm/s, the apparent permeability from basolateral to apical (Papp B→A) worked out at 13.4 ×10⁻⁶ cm/s and the efflux ratio stood at 18.

In the case of `CC(C)NCC(O)COc1cccc2ccccc12` (stereo not shown) [Propranolol], the Papp (in general, the rate of passage across a membrane or cell layer, normalised by area and donor concentration) in data set [2] (Caco-2, Papp) was determined as 20.8 ×10⁻⁶ cm/s.

The values above are taken from patent US9421204B2, “Oligomer modified diaromatic substituted compounds” (priority 2010, dated 2016).
